ChEMBL document CHEMBL5674860, “Optimized Dual-Glo Assay to identify co-culture-induced drug vulnerabilities in 3D CRC models” (2024)

Key:
Format in all cases: functional, Homo sapiens
Set-up in all cases: dose or concentration left out as unconfirmed
Colon cancer organoid [1] = assay: Optimized Dual-Glo assay to identify co-culture induced drug vulnerabilities using donated chemical probes and chemogenomics kinase set in O14 CRC organoid and F14 CAF mono and co-culture. […] Cell viability is reported both mono and co-culture models.
Colon cancer organoid [2] = assay: Optimized Dual-Glo assay to identify co-culture induced drug vulnerabilities using donated chemical probes and chemogenomics kinase set in O20 CRC organoid and F20 CAF mono and co-culture. […] Cell viability is reported both mono and co-culture models.
Colon cancer organoid [3] = assay: Optimized Dual-Glo assay to identify co-culture induced drug vulnerabilities using donated chemical probes and chemogenomics kinase set in O06 CRC organoid and F06 CAF mono and co-culture. […] Cell viability is reported both mono and co-culture models.
[4] = Culture type Co-Culture, Transduced with Lucferase2-P2A-EGFP lentivirus
[5] = Culture type Co-Culture, Transduced with Renilla-dsRed lentivirus
[6] = Culture type Mono-Culture, Transduced with Lucferase2-P2A-EGFP lentivirus
[7] = Culture type Mono-Culture, Transduced with Renilla-dsRed lentivirus

| Structure (SMILES) | Cell Viability (Colon cancer organoid [1]; [4]) [%] | Cell Viability (Colon cancer organoid [1]; [5]) [%] | Cell Viability (Colon cancer organoid [1]; [6]) [%] | Cell Viability (Colon cancer organoid [1]; [7]) [%] | Cell Viability (Colon cancer organoid [2]; [4]) [%] | Cell Viability (Colon cancer organoid [2]; [5]) [%] | Cell Viability (Colon cancer organoid [2]; [6]) [%] | Cell Viability (Colon cancer organoid [2]; [7]) [%] | Cell Viability (Colon cancer organoid [3]; [4]) [%] | Cell Viability (Colon cancer organoid [3]; [5]) [%] | Cell Viability (Colon cancer organoid [3]; [6]) [%] | Cell Viability (Colon cancer organoid [3]; [7]) [%] |
| --- | --- | --- | --- | --- | --- | --- | --- | --- | --- | --- | --- | --- |
| CN1CCN(C(=O)C(C)(C)c2ccc(C(=O)Nc3cn4cc(-c5cc(C(C)(C)C)cc(C(C)(C)C)c5)ccc4n3)cc2)CC1 [T3-CLK-N] | 129.357 | 95.6255 | 93.4655 | 83.9103 | 83.0148 | 112.725 | 124.688 | 67.9916 | 119.67 | 85.6501 | 109.915 | 85.7063 |
| CN1CCN(C(=O)C(C)(C)c2ccc(C(=O)Nc3cn4cc(-c5ccncc5)ccc4n3)cc2)CC1 [T3-CLK] | 26.2693 | 164.302 | 35.9707 | 93.5791 | 17.3495 | 291.942 | 28.5908 | 98.0167 | 42.8408 | 189.116 | 24.3767 | 109.981 |
| COc1cccc(CNC(=O)c2nc3scc(CN(C)Cc4ccccc4)c3c(=O)[nH]2)c1 [T-26f] | 86.5179 | 95.8142 | 82.3734 | 95.7877 | 156.545 | 109.586 | 116.769 | 103.534 | 114.676 | 151.389 | 102.721 | 101.465 |
| O[C@H]1CC[C@H](Nc2ncc3nc(Nc4c(F)cc(F)cc4F)n([C@H]4CCOC4)c3n2)CC1 [TANZISERTIB] | 101.857 | 126.192 | 105.608 | 109.828 | 129.23 | 97.8883 | 76.6269 | 101.702 | 96.802 | 109.826 | 106.51 | 114.573 |
| Cc1nc(-c2cn3c(n2)-c2ccc(-c4cnn(C(C)(C)C(N)=O)c4)cc2OCC3)n(C(C)C)n1 [TASELISIB] | 25.1108 | 133.934 | 29.7364 | 65.8836 | 15.8608 | 146.008 | 9.086 | 84.7341 | 42.3556 | 62.2904 | 29.0303 | 59.8749 |
| COc1cccc2c1c(O)c(C(=O)N(C)c1ccc(C(F)(F)F)cc1)c(=O)n2C [TASQUINIMOD] | 94.583 | 144.919 | 82.4794 | 97.8059 | 63.9822 | 99.9703 | 87.5673 | 108.719 | 78.5663 | 130.265 | 63.1287 | 110.699 |
| C[C@@H]1CCN(C(=O)CC#N)C[C@@H]1N(C)c1ncnc2[nH]ccc12.O=C(O)CC(O)(CC(=O)O)C(=O)O [TOFACITINIB CITRATE] | 119.294 | 99.6774 | 102.323 | 98.8919 | 115.032 | 86.9545 | 89.5356 | 81.856 | 105.115 | 91.9737 | 115.164 | 114.62 |
